US20240409536A1, “COMPOUNDS AND METHODS FOR MODULATING SPLICING” (REMIX THERAPEUTICS INC., priority 2021, published 2024)

Key:
HiBiT-tagged HTT protein = assay: HiBiT protein abundance assay, HTT (K562 HiBiT knock-in cells); type: cell-based, human; conditions: 24 hours
Outline: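 Luminescent readout of HiBiT-tagged endogenous protein after lysis, following 24 h compound exposure of knock-in K562 lines at 37 °C. Ten 3-fold concentrations from 10 μM final, DMSO ≤0.25%. Four-parameter logistic fit of normalized response gives concentration halving abundance (IC50).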

Target C mRNA = assay: Gene panel canonical junction qPCR assay, Target C CJ mRNA decrease; type: cell-based; conditions: Homo sapiens, canonical junction qPCR, read-out: Target C IC50 (decrease in CJ mRNA levels)
Outline: (§1)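 A673 or K562 cells were treated with compound, and lysates underwent cDNA synthesis and qPCR with a CY5 5′-nuclease probe or primer spanning the canonical exon junction. ΔCt versus GAPDH, GUSB or PPIA was normalized to DMSO (2^(−ΔΔCt)), converted to percentage response and fitted four-parameter logistic for IC50.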

MYB mRNA = assay: Gene panel canonical junction qPCR assay, MYB CJ mRNA decrease; type: cell-based, human; conditions: Homo sapiens, canonical junction qPCR, read-out: MYB IC50 (decrease in CJ mRNA levels)
Outline: as §1

HTT mRNA = assay: Gene panel canonical junction qPCR assay, HTT CJ mRNA decrease; type: cell-based, human; conditions: Homo sapiens, canonical junction qPCR, read-out: HTT IC50 (decrease in CJ mRNA levels)
Outline: as §1

SMN2 mRNA = assay: Gene panel canonical junction qPCR assay, SMN2 CJ mRNA decrease; type: cell-based, human; conditions: Homo sapiens, canonical junction qPCR, read-out: SMN2 IC50 (decrease in CJ mRNA levels)
Outline: as §1

Compound | IC50 (HiBiT-tagged HTT protein) [nM] | IC50 (Target C mRNA) [nM] | IC50 (MYB mRNA) [nM] | IC50 (HTT mRNA) [nM] | IC50 (SMN2 mRNA) [nM]
Cc1cn2cc(NC(=O)c3ccc(N4C[C@@H](C)N[C@@H](C)C4)c4ncc(OC5CC5)nc34)cc(F)c2n1 [Compound 351] | 1000 to 10000 | 1000 to 10000 | 100 to 1000 | 1000 to 10000 | < 100
CNC1CCN(c2ccc(C(=O)Nc3cc(F)c4nc(C)cn4c3)c3nc(OCCOC)ccc23)C1 (centres unmarked) [Compound 234] | 1000 to 10000 | 1000 to 10000 | 100 to 1000 | 1000 to 10000 | < 100
CCOc1cnc2c(N3C[C@@H](C)N[C@@H](C)C3)ccc(C(=O)Nc3cc(F)c4nc(C)cn4c3)c2n1 [Compound 296] | 100 to 1000 | 1000 to 10000 | < 100 | 100 to 1000 | < 100
COc1nc2c(F)cc(NC(=O)c3ccc(N4C[C@@H](C)N[C@@H](C)C4)c4nccnc34)cc2o1 [Compound 342] | > 10000 | > 10000 | > 10000 | > 10000 | 100 to 1000
C[C@@H]1CN(c2ccc(C(=O)Nc3cc(F)c4ncccc4c3)c3nccnc23)C[C@H](C)N1 [Compound 344] | > 10000 | > 10000 | 1000 to 10000 | > 10000 | 100 to 1000
COc1nc(NC(=O)c2ccc(N3C[C@@H](C)N[C@@H](C)C3)c3nccnc23)cc2oc(C)nc12 [Compound 298] | 1000 to 10000 | > 10000 | 100 to 1000 | > 10000 | < 100
Cc1cn2cc(NC(=O)c3ccc(N4C[C@@H](C)N[C@@H](C)C4)c4ncc(N(C)C)nc34)cc(F)c2n1 [Compound 283] | 100 to 1000 | 100 to 1000 | < 100 | 100 to 1000 | < 100
COc1nc2c(N3C[C@@H](C)N[C@@H](C)C3)ccc(C(=O)Nc3cc(F)c4nc(C)cn4c3)c2nc1C [Compound 260, 8-((3R,5S)-3,5-dimethylpiperazin-1-yl)-N-(8-fluoro-2-methylimidazo[1,2-a]pyridin-6-yl)-2-methoxy-3-methylquinoxaline-5-carboxamide; 2,2,2-trifluoroacetate] | 1000 to 10000 | 1000 to 10000 | 100 to 1000 | 100 to 1000 | < 100
CNc1nc(NC(=O)c2ccc(N3C[C@@H](C)N[C@@H](C)C3)c3nccnc23)cn2cc(C)nc12 [Compound 308] | > 10000 | > 10000 | 1000 to 10000 | > 10000 | 100 to 1000
Cc1cn2cc(NC(=O)c3ccc(N4CCN(CCO)C5(CC5)C4)c4nccnc34)cc(F)c2n1 [Compound 369] | 1000 to 10000 | 1000 to 10000 | 100 to 1000 | 1000 to 10000 | < 100
Cc1cn2cc(NC(=O)c3ccc(N4C[C@@H](C)N[C@@H](C)C4)c4cncnc34)cc(F)c2n1 [Compound 302] | 1000 to 10000 | 1000 to 10000 | 100 to 1000 | 1000 to 10000 | < 100
COc1nc(NC(=O)c2ccc(N3C[C@@H](C)N[C@@H](C)C3)c3nccnc23)nc2cn(C)nc12 [Compound 287] | > 10000 | > 10000 | 1000 to 10000 | > 10000 | 1000 to 10000
Cc1cn2cc(NC(=O)c3ccc(N4CCNC5(CCC5)C4)c4nccnc34)cc(F)c2n1 [Compound 363] | 1000 to 10000 | 1000 to 10000 | 100 to 1000 | 1000 to 10000 | < 100
Cc1cn2cc(NC(=O)c3ccc(N4C[C@@H](C)N[C@@H](C)C4)c4nccnc34)cc(C#N)c2n1 [Compound 294] | > 10000 | > 10000 | 100 to 1000 | 1000 to 10000 | < 100
Cc1ccc2cc(NC(=O)c3ccc(N4C[C@@H](C)N[C@@H](C)C4)c4nccnc34)cc(F)c2n1 [Compound 353] | > 10000 | > 10000 | > 10000 | > 10000 | 100 to 1000
Cc1cn2cc(NC(=O)c3ccc(N4C[C@@H](C)N[C@@H](C)C4)c4nccnc34)cc(Cl)c2n1 [Compound 304] | > 10000 | > 10000 | < 100 | 1000 to 10000 | < 100
Cc1cn2cc(NC(=O)c3ccc(N4C[C@H](C)N[C@@H](C)C4)c4nccnc34)cc(F)c2n1 [Compound 313] | 100 to 1000 | 1000 to 10000 | < 100 | 1000 to 10000 | < 100
C[C@@H]1CN(c2ccc(C(=O)Nc3cc(F)c4nn(C)cc4c3)c3nccnc23)C[C@@H](C)N1 [Compound 335] | 1000 to 10000 | > 10000 | 100 to 1000 | 1000 to 10000 | < 100
Cc1cn2cc(NC(=O)c3ccc(N4C[C@@H](C)N[C@@H](C)C4)c4ncc(Cl)nc34)cc(F)c2n1 [Compound 281] | 1000 to 10000 | > 10000 | 1000 to 10000 | > 10000 | 1000 to 10000

Second part, the molecule after the results:

IC50 (HiBiT-tagged HTT protein) [nM] | IC50 (Target C mRNA) [nM] | IC50 (MYB mRNA) [nM] | IC50 (HTT mRNA) [nM] | IC50 (SMN2 mRNA) [nM] | Compound
1000 to 10000 | > 10000 | 100 to 1000 | > 10000 | < 100 | Cc1cn2cc(NC(=O)c3ccc(NC4CCNC4)c4nccnc34)cc(F)c2n1 (centres unmarked) [Compound 316]
1000 to 10000 | > 10000 | 100 to 1000 | > 10000 | < 100 | Cc1cn2cc(NC(=O)c3ccc(N4CCN[C@@H](C5CC5)C4)c4nccnc34)cc(F)c2n1 [Compound 252, 8-[(3S)-3-cyclopropylpiperazin-1-yl]-N-{8-fluoro-2-methylimidazo[1,2-a]pyridin-6-yl}quinoxaline-5-carboxamide]
100 to 1000 | 1000 to 10000 | 100 to 1000 | 1000 to 10000 | < 100 | Cc1cn2cc(NC(=O)c3ccc(N4CCNCC4)c4nccnc34)cc(F)c2n1 [Compound 111]
1000 to 10000 | 1000 to 10000 | 1000 to 10000 | 1000 to 10000 | 100 to 1000 | Cc1cn2nc(NC(=O)c3ccc(C4CCNCC4)c4ccnnc34)cc(C)c2n1 [Compound 113]
100 to 1000 | 1000 to 10000 | < 100 | 1000 to 10000 | < 100 | CN[C@H]1CCN(c2ccc(C(=O)Nc3cc(F)c4nc(C)cn4c3)c3nnccc23)C1 [Compound 239, (S)—N-(8-fluoro-2-methylimidazo[1,2-a]pyridin-6-yl)-5-(3-(methylamino)pyrrolidin-1-yl)cinnoline-8-carboxamide]
100 to 1000 | 1000 to 10000 | < 100 | 100 to 1000 | < 100 | COc1nc(NC(=O)c2ccc(N3C[C@@H](C)N[C@@H](C)C3)c3nccnc23)cn2cc(C)nc12 [Compound 277]
1000 to 10000 | 1000 to 10000 | 100 to 1000 | 1000 to 10000 | < 100 | Cc1cn2cc(NC(=O)c3ccc(N4CCN[C@H](CO)C4)c4nccnc34)cc(F)c2n1 [Compound 362]
1000 to 10000 | > 10000 | < 100 | 1000 to 10000 | < 100 | Cc1cn2cc(NC(=O)c3ccc(N4CCN[C@H](C5CC5)C4)c4nccnc34)cc(F)c2n1 [Compound 253, 8-[(3R)-3-cyclopropylpiperazin-1-yl]-N-{8-fluoro-2-methylimidazo[1,2-a]pyridin-6-yl}quinoxaline-5-carboxamide]
100 to 1000 | 100 to 1000 | 100 to 1000 | 100 to 1000 | 100 to 1000 | Cc1cn2nc(NC(=O)c3ccc(N4C[C@@H](C)N[C@@H](C)C4)c4nccnc34)cc2c(C)n1 [Compound 354]
1000 to 10000 | 1000 to 10000 | 100 to 1000 | > 10000 | < 100 | Cc1cn2cc(NC(=O)c3ccc(N4C[C@@H](C5CC5)N[C@@H](C)C4)c4nccnc34)cc(F)c2n1 [Compound 267, 8-((3R,5S)-3-cyclopropyl-5-methylpiperazin-1-yl)-N-(8-fluoro-2-methylimidazo[1,2-a]pyridin-6-yl)quinoxaline-5-carboxamide]
100 to 1000 | 1000 to 10000 | < 100 | 1000 to 10000 | < 100 | CN[C@@H]1CCN(c2ccc(C(=O)Nc3cc(F)c4nc(C)cn4c3)c3nnccc23)C1 [Compound 238, (R)—N-(8-fluoro-2-methylimidazo[1,2-a]pyridin-6-yl)-5-(3-(methylamino)pyrrolidin-1-yl)cinnoline-8-carboxamide]
1000 to 10000 | > 10000 | 100 to 1000 | 1000 to 10000 | < 100 | Cc1cn2cc(NC(=O)c3ccc(N4CC[C@@H](N)C4)c4ccnnc34)cc(F)c2n1 [Compound 270]
1000 to 10000 | > 10000 | 100 to 1000 | 1000 to 10000 | < 100 | Cc1cn2cc(NC(=O)c3ccc([C@H]4CCNC4)c4nccnc34)cc(F)c2n1 [Compound 246]
1000 to 10000 | 1000 to 10000 | 100 to 1000 | 1000 to 10000 | < 100 | Cc1cn2cc(NC(=O)c3ccc(N4CCC5(CCN5)C4)c4nccnc34)cc(F)c2n1 (centres unmarked) [Compound 339]
100 to 1000 | 1000 to 10000 | 100 to 1000 | 100 to 1000 | < 100 | Cc1cn2cc(NC(=O)c3ccc(N4CCN(C)C5(CC5)C4)c4nccnc34)cc(F)c2n1 [Compound 364]
